Assays:
[1] = Antitumor activity against Mus musculus (mouse) DLA cells transplanted in Swiss albino mouse assessed as decrease in alanine amino transferase level at 50 mg/kg, ip qd administered 24 hr post tumor transplantation for 14 days measured on day 14 (reference value: 61.2 +/- 2.6 U/L); assay type: functional; details: route intraperitoneal
[2] = Antitumor activity against Mus musculus (mouse) DLA cells transplanted in Swiss albino mouse assessed as decrease in body weight at 50 mg/kg, ip qd administered 24 hr post tumor transplantation for 14 days measured on day 14 (reference value: 7.6 +/- 0.94 g); assay type: functional; details: route intraperitoneal
[3] = Antitumor activity against Mus musculus (mouse) DLA cells transplanted in Swiss albino mouse assessed as decrease in aspartate amino transferase level at 50 mg/kg, ip qd administered 24 hr post tumor transplantation for 14 days measured on day 14 (reference value: 85.6 +/- 2.72 U/L); assay type: functional; details: route intraperitoneal
[4] = Antitumor activity against Mus musculus (mouse) DLA cells transplanted in Swiss albino mouse assessed as increase in life span at 50 mg/kg, ip qd administered 24 hr post tumor transplantation for 14 days measured on day 14 (reference value: 50%); assay type: functional; details: route intraperitoneal
[5] = Antitumor activity against Mus musculus (mouse) DLA cells transplanted in Swiss albino mouse assessed as decrease in packed cell volume at 50 mg/kg, ip qd administered 24 hr post tumor transplantation for 14 days measured on day 14 (reference value: 30.55 +/- 3.52%); assay type: functional; design: scale not given: the % may be the effect or the level left; details: route intraperitoneal
[6] = Antitumor activity against Mus musculus (mouse) DLA cells transplanted in Swiss albino mouse assessed as decrease in cholesterol level at 50 mg/kg, ip qd administered 24 hr post tumor transplantation for 14 days measured on day 14 (reference value: 140.86 +/- 4.6 mg/dl); assay type: functional; details: route intraperitoneal
[7] = Antitumor activity against Mus musculus (mouse) DLA cells transplanted in Swiss albino mouse assessed as decrease in total WBC count measured 10^3 cells at 50 mg/kg, ip qd administered 24 hr post tumor transplantation for 14 days measured on day 14 (reference value: 14.40 +/- 2.5 ml); assay type: functional; design: unit not given here; details: route intraperitoneal
[8] = Antitumor activity against Mus musculus (mouse) DLA cells transplanted in Swiss albino mouse assessed as increase in haemoglobin level at 50 mg/kg, ip qd administered 24 hr post tumor transplantation for 14 days measured on day 14 (reference value: 7.12 +/- 0.95 g/dl); assay type: functional; details: route intraperitoneal
[9] = Antitumor activity against Mus musculus (mouse) DLA cells transplanted in Swiss albino mouse assessed as increase in RBC count at 50 mg/kg, ip qd administered 24 hr post tumor transplantation for 14 days measured on day 14 (reference value: 2.46 +/- 0.45 million/mm3); assay type: functional; details: route intraperitoneal
Mus musculus = test: Acute toxicity in ip dosed albino Mus musculus (mouse) after 24 hr; assay type: organism-based; details: in vivo
[10] = Antitumor activity against Mus musculus (mouse) DLA cells transplanted in Swiss albino mouse assessed as decrease in alkaline phosphatase level at 50 mg/kg, ip qd administered 24 hr post tumor transplantation for 14 days measured on day 14 (reference value: 242.22 +/- 4.3 U/L); assay type: functional; details: route intraperitoneal
[11] = Antitumor activity against Mus musculus (mouse) DLA cells transplanted in Swiss albino mouse assessed as decrease in triglyceride level at 50 mg/kg, ip qd administered 24 hr post tumor transplantation for 14 days measured on day 14 (reference value: 210.12 +/- 4.65 mg/dl); assay type: functional; details: route intraperitoneal
[12] = Antitumor activity against Mus musculus (mouse) DLA cells transplanted in Swiss albino mouse assessed as increase in platelet count at 50 mg/kg, ip qd administered 24 hr post tumor transplantation for 14 days measured on day 14 (reference value: 1.6 +/- 0.52 lakhs/mm3); assay type: functional; details: route intraperitoneal
[13] = Antitumor activity against Mus musculus (mouse) DLA cells transplanted in Swiss albino mouse assessed as decrease in cancer cell count measured 10^6 cells at 50 mg/kg, ip qd administered 24 hr post tumor transplantation for 14 days measured on day 14 (reference value: 2.76 +/- 0.33 ml); assay type: functional, Cancer cell lines; details: route intraperitoneal
[14] = Antitumor activity against Mus musculus (mouse) DLA cells transplanted in Swiss albino mouse assessed as decrease in alkaline phosphatase level at 20 mg/kg, ip qd administered 24 hr post tumor transplantation for 14 days measured on day 14 (reference value: 242.22 +/- 4.3 U/L); assay type: functional; details: route intraperitoneal
[15] = Antitumor activity against Mus musculus (mouse) DLA cells transplanted in Swiss albino mouse assessed as increase in life span at 20 mg/kg, ip qd administered 24 hr post tumor transplantation for 14 days measured on day 14 (reference value: 50%); assay type: functional; details: route intraperitoneal
[16] = Antitumor activity against Mus musculus (mouse) DLA cells transplanted in Swiss albino mouse assessed as decrease in alanine amino transferase level at 20 mg/kg, ip qd administered 24 hr post tumor transplantation for 14 days measured on day 14 (reference value: 61.2 +/- 2.6 U/L); assay type: functional; details: route intraperitoneal
[17] = Antitumor activity against Mus musculus (mouse) DLA cells transplanted in Swiss albino mouse assessed as increase in RBC count at 20 mg/kg, ip qd administered 24 hr post tumor transplantation for 14 days measured on day 14 (reference value: 2.46 +/- 0.45 million/mm3); assay type: functional; details: route intraperitoneal
[18] = Antitumor activity against Mus musculus (mouse) DLA cells transplanted in Swiss albino mouse assessed as decrease in triglyceride level at 20 mg/kg, ip qd administered 24 hr post tumor transplantation for 14 days measured on day 14 (reference value: 210.12 +/- 4.65 mg/dl); assay type: functional; details: route intraperitoneal
[19] = Antitumor activity against Mus musculus (mouse) DLA cells transplanted in Swiss albino mouse assessed as decrease in total WBC count measured 10^3 cells at 20 mg/kg, ip qd administered 24 hr post tumor transplantation for 14 days measured on day 14 (reference value: 14.40 +/- 2.5 ml); assay type: functional; details: route intraperitoneal
[20] = Antitumor activity against Mus musculus (mouse) DLA cells transplanted in Swiss albino mouse assessed as increase in platelet count at 20 mg/kg, ip qd administered 24 hr post tumor transplantation for 14 days measured on day 14 (reference value: 1.6 +/- 0.52 lakhs/mm3); assay type: functional; details: route intraperitoneal
[21] = Antitumor activity against Mus musculus (mouse) DLA cells transplanted in Swiss albino mouse assessed as decrease in cancer cell count measured 10^6 cells at 20 mg/kg, ip qd administered 24 hr post tumor transplantation for 14 days measured on day 14 (reference value: 2.76 +/- 0.33 ml); assay type: functional, Cancer cell lines; details: route intraperitoneal
[22] = Antitumor activity against Mus musculus (mouse) DLA cells transplanted in Swiss albino mouse assessed as decrease in aspartate amino transferase level at 20 mg/kg, ip qd administered 24 hr post tumor transplantation for 14 days measured on day 14 (reference value: 85.6 +/- 2.72 U/L); assay type: functional; details: route intraperitoneal
[23] = Antitumor activity against Mus musculus (mouse) DLA cells transplanted in Swiss albino mouse assessed as decrease in cholesterol level at 20 mg/kg, ip qd administered 24 hr post tumor transplantation for 14 days measured on day 14 (reference value: 140.86 +/- 4.6 mg/dl); assay type: functional; details: route intraperitoneal
[24] = Antitumor activity against Mus musculus (mouse) DLA cells transplanted in Swiss albino mouse assessed as decrease in packed cell volume at 20 mg/kg, ip qd administered 24 hr post tumor transplantation for 14 days measured on day 14 (reference value: 30.55 +/- 3.52%); assay type: functional; design: scale not given: the % may be the effect or the level left; details: route intraperitoneal
[25] = Antitumor activity against Mus musculus (mouse) DLA cells transplanted in Swiss albino mouse assessed as decrease in body weight at 20 mg/kg, ip qd administered 24 hr post tumor transplantation for 14 days measured on day 14 (reference value: 7.6 +/- 0.94 g); assay type: functional; details: route intraperitoneal
[26] = Antitumor activity against Mus musculus (mouse) DLA cells transplanted in Swiss albino mouse assessed as increase in haemoglobin level at 20 mg/kg, ip qd administered 24 hr post tumor transplantation for 14 days measured on day 14 (reference value: 7.12 +/- 0.95 g/dl); assay type: functional; details: route intraperitoneal

SMILES	Activity [1] [U/L]	Activity [2] [g]	Activity [3] [U/L]	Activity [4] [%]	Activity [5] [%]	Activity [6] [mg/dL]	Activity [7]	Activity [8] [g/dL]	Activity [9] [million/mm3]	ED50 (Mus musculus) [mg/kg]	Activity [10] [U/L]	Activity [11] [mg/dL]	Activity [12] [×10⁵ /mm3]	Activity [13] [mL]	further results
CN(C)c1ccc(/C=C/C(=C2C(=O)NC(=O)NC2=O)c2nc3ccccc3[nH]2)cc1	51.45	5.9	73.4	74	22.42	124.3	12.5	10.42	3.25	50	210.21	172.4	2.22	1.9	–
O=C1NC(=O)C(=C(/C=C/c2cccc([N+](=O)[O-])c2)c2nc3ccccc3[nH]2)C(=O)N1	53.42	5.88	72.6	76	20.48	122.3	12.45	10.5	3.3	50	202.85	168.7	2.3	1.88	–
O=C1NC(=O)C(=C(/C=C/c2ccccc2O)c2nc3ccccc3[nH]2)C(=O)N1	56.42	5.43	75.4	69	23.68	131.3	13.45	10.1	2.8	50	229.15	178.7	2.05	2.03	–
O=C1NC(=O)C(=C(/C=C/c2ccccc2)c2nc3ccccc3[nH]2)C(=O)N1	57.3	6.45	77.6	66	24.1	136.45	13.8	9.3	2.9	50	232.32	186.85	1.99	2.26	–
O=C1NC(=O)C(=C(/C=C/c2ccc(Cl)cc2)c2nc3ccccc3[nH]2)C(=O)N1	55.6	6.6	76.52	70	23.1	129.32	12.7	10.3	3.1	50	223.36	182.5	2.1	2.12	–
COc1ccc(/C=C/C(=C2C(=O)NC(=O)NC2=O)c2nc3ccccc3[nH]2)cc1	53.52	6.3	75.62	72	22.9	126.35	12.55	10.28	3.15	50	218.26	170.6	2.12	1.96	–
O=c1[nH]cc(F)c(=O)[nH]1 [FLUOROURACIL]	–	–	–	–	–	–	–	–	–	–	–	–	–	–	Activity [14]: 162.3 U/L; Activity [15]: 94%; Activity [16]: 42.45 U/L; Activity [17]: 4.1 million/mm3; Activity [18]: 156.42 mg/dL; Activity [19]: 11.3 mL; Activity [20]: 2.65 ×10⁵ /mm3; Activity [21]: 1.3 mL; Activity [22]: 56.3 U/L; Activity [23]: 112.52 mg/dL; Activity [24]: 17.45%; Activity [25]: 3.7 g; Activity [26]: 11.5 g/dL

Reference: ChEMBL document CHEMBL3045992, “Antitumour activity of 5-[(2E)-1-(1H-benzimidazol-2-yl)-3-substituted phenylprop-2-en-1-ylidene] pyrimidine-2,4,6(1H,3H,5H)-triones against Daltons ascitic lymphoma in mice” (Med Chem Res, 2013)
